Experimental data published in article PMC12131194, “Rational design, synthesis, and evaluation of novel polypharmacological compounds targeting NaV1.5, KV1.5, and K2P channels for atrial fibrillation” (The Journal of Biological Chemistry, 2025).
Several values for one entry are separate records, joined by “and”; a condition that tells them apart may be missing. Equal entries are not always repeated.

Biological target: human TASK-1 (Homo sapiens, UniProt O14649)
Experiment: TEVC recordings in X. laevis oocytes, TASK-1
Assay type: cell-based
Parameters: human TASK-1 (KCNK3, NM_002246); expressed in transfected cells; host or cells: Xenopus laevis oocytes injected with cRNA
Settings: for Ionic current block IK2P: from inhibition curves, used for simulation
Description: The two-electrode voltage clamp (TEVC) technique was used for electrophysiology tests. Channels were expressed in Xenopus laevis oocytes. The initial channel-blocking potential was assessed at 100 μM for the 10 synthesized compounds on TASK-1 and KV1.5 channels.
To obtain X. laevis oocytes, the frogs were anesthetized with 2 g/L of tricaine methanesulfonate, and the ovarian lobes were mechanically separated with forceps. The oocytes were incubated for 120 min in an OR2 solution containing in mM: NaCl 82.5, KCl 2, MgCl2 1, HEPES 5 (pH 7.5) supplemented with 2 mg/ml of collagenase II (Sigma) to remove residual connective tissue and obtain individual oocytes. Subsequently, the oocytes were washed with a ND96 solution containing in mM: NaCl 96, KCl 2, CaCl2 1.8, MgCl2 1, HEPES 5 (pH 7.5, adjusted with NaOH) and stored at 18 °C in ND96 solution supplemented with 1 ml of gentamicin (50 mg/L), sodium pyruvate (275 mg/L) and (90 mg/L) theophylline (inhibits further oocyte maturation) before and after RNA injection.
In order to overexpress the channel in the oocyte, each of the channels to be measured was subcloned (complementary DNA (cDNA); human TASK-1 (KCNK3, NM_002246), h KV1.5 (KCNA5, NM_002234), h NaV1.5 (hH1, M77235), TASK-4/TALK-2 (KCNK17, NM_AF358910), TREK-1 (KCNK2, AF004711) and Kir2.1 (KCNJ2, NM_017296) into pSGEM, pBF1 or pSP64 expression vector, and the cDNA was linearized with NheI or MluI. Complementary RNA (cRNA) was synthesized with the mMESSAGE mMACHINE-Kit (Ambion). The quality of the cRNA was tested on an agarose gel by electrophoresis. cRNA was quantified using a UV-Vis spectrophotometer (NanoDrop 2000). Subsequently, the channel was transfected in the oocytes in stages V and VI, for which […] (TASK-1, KV1.5 or TREK-1), 10 ng (NaV1.5 or TASK-4) o 2.5 ng (Kir2.1) per oocyte of cRNA was injected with a NanojectII microinjector (Drummond Scientific). The oocytes were stored in 24-well plates for 24 to 48 h at 18 °C. After this time, the overexpression of each channel was monitored through electrophysiology.
Two-electrode voltage clamp measurements were performed 24 or 48 h after cRNA injection at room temperature (20–22 °C) in ND96 recording solution with a TurboTEC-10CD (npi) amplifier and a Digidata 1550B (for TASK-1 and KV1.5) and 1440A (for NaV1.5) A/D converter from Axon Instruments. Micropipettes were fabricated from GB 150 TF-8P borosilicate glass capillaries (Science Products) elongated in a DMZ-Universal Puller (Zeitz, Germany). […] ND96 was used as bath solution. Data acquisition was performed using Clampex 10 software (Axon Instruments), and data were analyzed with ClampFit 10 (Axon Instruments) and Origin 7 (Origin Lab Corporation).
For compound inhibition testing, from a holding potential of −80 mV a first test pulse to 0 mV of 1 s duration was followed by a repolarization step at −80 mV for 1 s, directly followed by another 1 s test pulse at +40 mV. The sweep time interval was 10 s for KV1.5 and TASK-1 channels. For the NaV1.5 channel, the block was analyzed with voltage steps from a holding potential of −80 mV. A first depolarizing pulse to −30 mV of 50 ms duration was applied, followed by a 5 ms step to −80 mV. The sweep time interval was 5 s. The compounds were applied at different concentrations to determine the half-maximal inhibitory concentration (IC50), using a fit to the Hill equation.
To test for a putative voltage-dependence of the block by the compound 6f in KV1.5, a 1.5 s voltage step protocol from −80 to +80 mV with +20 mV increments was used. The holding potential was −80 mV and the sweep time interval was 10 s. Currents were analyzed at the end of the voltage pulse. For TASK-1, voltage-dependence of block was probed using a high-potassium solution (KD96) containing in mM: KCl 96, NaCl 2, CaCl2 1.8, MgCl2 1, HEPES 5, (pH 7.5, adjusted with KOH). From a holding potential of 0 mV, voltage was stepped from −80 mV to +80 mV for 1.5 s in +20 mV steps every 10 s. […]

human TASK-1, sequence (O14649 whole entry): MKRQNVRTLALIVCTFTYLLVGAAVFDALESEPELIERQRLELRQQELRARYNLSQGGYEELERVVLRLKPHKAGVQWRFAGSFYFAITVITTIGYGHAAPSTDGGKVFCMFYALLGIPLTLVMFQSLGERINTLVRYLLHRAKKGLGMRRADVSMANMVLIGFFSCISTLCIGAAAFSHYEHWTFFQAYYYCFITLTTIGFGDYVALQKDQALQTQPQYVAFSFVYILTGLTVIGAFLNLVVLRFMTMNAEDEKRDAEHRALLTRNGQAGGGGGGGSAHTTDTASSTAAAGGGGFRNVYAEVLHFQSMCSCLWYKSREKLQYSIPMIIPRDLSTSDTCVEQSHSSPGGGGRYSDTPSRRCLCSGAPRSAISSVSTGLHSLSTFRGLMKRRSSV

CCCCN(CCCC)CC(=O)Nc1ccc(OC)cc1OC [Compound 6f, 2-(dibutylamine)-N-(2,4-dimethoxiphenyl)acetamide]
Ionic current block IK2P (1 μM): 58%
Ionic current block IK2P (10 μM): 75%
inhibition at 100 µM (100 μM, +40 mV, oocytes, mean ± SD): 84.1 ± 10.7%
Ionic current block IK2P (100 μM): 85%
IC50 (X. laevis oocytes, TEVC, block at +40 mV): ~310 nM and 310 nM
Voltage-dependence of block of TASK-1 (oocytes, KD96 solution): no significant voltage-dependence
